According to patent US20240217990A1 (Gilead Sciences, Inc., priority 2021, published 2024):
pEC50: −log10 of the molar value.

Columns and labels:
[1] = molecular target: T1, TLR8 (Homo sapiens, UniProt Q9NR97); assay: TLR8 human PBMC cell-based assay (antagonist, Compound A stimulated cytokine release); conditions: human PBMCs; TLR8 agonist Compound A 800 nM, 6 hours; cytokines (TNFa and IL 12p40) in supernatant; read-out: TLR-8 EC50
T1 construct: Human peripheral blood mononuclear cells (PBMCs) consist of lymphocytes, monocytes and dendritic cells that express TLR7, TLR8 and TLR9; endogenous in cells; host or cells: cryopreserved human PBMCs from healthy donors
T1 sequence (Q9NR97 27-1041): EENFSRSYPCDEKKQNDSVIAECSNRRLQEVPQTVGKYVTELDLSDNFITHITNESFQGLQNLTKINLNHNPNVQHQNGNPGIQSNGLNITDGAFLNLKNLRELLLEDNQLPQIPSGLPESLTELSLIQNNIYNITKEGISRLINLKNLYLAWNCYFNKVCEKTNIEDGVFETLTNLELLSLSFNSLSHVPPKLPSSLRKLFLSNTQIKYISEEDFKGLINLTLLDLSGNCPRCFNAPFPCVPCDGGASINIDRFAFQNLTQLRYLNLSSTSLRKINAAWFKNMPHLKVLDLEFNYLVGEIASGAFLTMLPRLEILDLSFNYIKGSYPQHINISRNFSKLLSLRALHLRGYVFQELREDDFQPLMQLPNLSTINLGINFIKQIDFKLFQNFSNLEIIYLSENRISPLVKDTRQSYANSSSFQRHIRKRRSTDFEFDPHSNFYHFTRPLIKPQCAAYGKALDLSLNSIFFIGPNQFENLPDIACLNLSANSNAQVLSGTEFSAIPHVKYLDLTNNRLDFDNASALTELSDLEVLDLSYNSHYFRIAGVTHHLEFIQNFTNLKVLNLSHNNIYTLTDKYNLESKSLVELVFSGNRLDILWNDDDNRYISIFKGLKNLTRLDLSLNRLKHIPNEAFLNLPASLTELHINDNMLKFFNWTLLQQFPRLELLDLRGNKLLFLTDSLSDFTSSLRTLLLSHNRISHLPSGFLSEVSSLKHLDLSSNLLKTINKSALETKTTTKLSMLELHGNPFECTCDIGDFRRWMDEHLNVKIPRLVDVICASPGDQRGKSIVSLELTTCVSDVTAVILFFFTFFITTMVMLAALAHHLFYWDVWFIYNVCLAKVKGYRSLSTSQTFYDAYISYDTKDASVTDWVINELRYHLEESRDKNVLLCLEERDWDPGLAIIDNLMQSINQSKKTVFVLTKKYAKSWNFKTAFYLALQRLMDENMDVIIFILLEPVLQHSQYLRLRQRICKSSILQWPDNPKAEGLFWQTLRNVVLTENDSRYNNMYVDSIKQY
In short: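 Cryopreserved donor PBMCs (100,000/well, RPMI + 10% FBS) were preincubated 1 h with antagonist (10-point dose response, quadruplicate), then stimulated with Compound A (800 nM final) for 6 h at 37 °C. TNFa and IL-12p40 in supernatants were measured by electrochemiluminescence; sigmoidal fits gave EC50.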

[2] = molecular target: T2, TLR7 (Homo sapiens, UniProt Q9NYK1); assay: TLR7 human PBMC cell-based assay (antagonist, GS-986 stimulated cytokine release); conditions: human PBMCs; TLR7 agonist GS-986 400 nM, 6 hours; cytokines (IL-6 and IFNα) in supernatant; read-out: TLR-7 EC50
T2 construct: Human peripheral blood mononuclear cells (PBMCs) consist of lymphocytes, monocytes and dendritic cells that express TLR7, TLR8 and TLR9; endogenous in cells; host or cells: cryopreserved human PBMCs from healthy donors
T2 sequence (Q9NYK1 27-1049): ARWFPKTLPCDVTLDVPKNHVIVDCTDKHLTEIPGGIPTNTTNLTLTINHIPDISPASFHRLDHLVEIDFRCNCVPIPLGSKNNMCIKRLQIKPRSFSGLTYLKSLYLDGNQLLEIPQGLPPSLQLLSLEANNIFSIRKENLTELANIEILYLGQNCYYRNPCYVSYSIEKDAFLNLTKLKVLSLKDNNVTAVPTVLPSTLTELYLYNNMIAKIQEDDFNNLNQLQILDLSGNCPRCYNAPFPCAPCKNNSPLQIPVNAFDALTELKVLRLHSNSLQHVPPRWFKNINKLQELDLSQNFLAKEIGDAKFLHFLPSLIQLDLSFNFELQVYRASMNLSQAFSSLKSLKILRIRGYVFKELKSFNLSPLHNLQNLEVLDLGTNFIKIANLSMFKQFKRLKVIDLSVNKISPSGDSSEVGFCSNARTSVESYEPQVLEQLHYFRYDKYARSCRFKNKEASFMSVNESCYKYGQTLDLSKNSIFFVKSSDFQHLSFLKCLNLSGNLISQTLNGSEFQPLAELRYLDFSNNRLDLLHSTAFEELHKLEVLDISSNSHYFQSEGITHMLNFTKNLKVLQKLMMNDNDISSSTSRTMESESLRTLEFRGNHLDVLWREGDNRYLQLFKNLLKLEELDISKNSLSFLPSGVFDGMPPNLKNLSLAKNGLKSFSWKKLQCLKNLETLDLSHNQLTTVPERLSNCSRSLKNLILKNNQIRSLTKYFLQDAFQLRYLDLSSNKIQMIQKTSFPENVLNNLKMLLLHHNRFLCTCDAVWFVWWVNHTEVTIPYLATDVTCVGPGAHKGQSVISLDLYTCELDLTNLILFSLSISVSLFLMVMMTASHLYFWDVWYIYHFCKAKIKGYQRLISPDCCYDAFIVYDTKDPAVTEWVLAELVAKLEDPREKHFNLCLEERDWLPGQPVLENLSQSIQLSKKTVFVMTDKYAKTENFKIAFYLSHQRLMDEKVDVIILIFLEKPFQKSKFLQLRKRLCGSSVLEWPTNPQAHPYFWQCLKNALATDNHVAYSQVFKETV
In short: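 EC50 derived by sigmoidal fitting of IL-6 and IFNα levels, quantified by electrochemiluminescence in supernatants of human PBMCs given 400 nM GS-986 for 6 h. Cells (100,000/well in RPMI-1640, 10% FBS) had received test antagonist 1 h beforehand, 10 doses in quadruplicate, at 37 °C.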

Structure (SMILES) | pEC50 [1] | pEC50 [2]
Cc1cc(-c2[nH]c3cc(-c4ccc(C5CCNCC5)cc4)sc3c2C(C)C)cn2ncnc12 [Example 221] | 8.48 | 9.10
Cc1c(-c2[nH]c3cc(-c4cnc5c(c4)CNCC5)sc3c2C(C)C)cn2ncnc2c1C [Example 222] | 9.15 | 8.51
Cc1cc(-c2[nH]c3cc(-c4ccc5c(c4)CCNC5)sc3c2C(C)C)cn2ncnc12 [Example 223] | 9.30 | 9.40
COc1cc(-c2[nH]c3cc(-c4cnc5c(c4)CNCC5)sc3c2C(C)C)cn2ncnc12 [Example 224] | 9.52 | 9.40
Cc1cc(-c2[nH]c3cc(-c4cccc5c4CCNC5)sc3c2C(C)C)cn2ncnc12 [Example 225] | 8.28 | 7.42
Cc1cc(-c2[nH]c3cc(-c4cnn(C5CCNC5)c4)sc3c2C(C)C)cn2ncnc12 (stereo not shown) [Example 226] | 8.80 | 9.22
Cc1cc(-c2[nH]c3cc(-c4ccc5c(c4)CC(N)C5)sc3c2C(C)C)cn2ncnc12 (stereo not shown) [Example 227] | 9.15 | 9.22
Cc1c(-c2[nH]c3cc(-c4ccc(N5CCNCC5)nc4)sc3c2C(C)C)cn2ncnc2c1C [Example 228] | 9.30 | 9.40
Cc1c(-c2[nH]c3cc(-c4cnn(C5CCNCC5)c4)sc3c2C(C)C)cn2ncnc2c1C [Example 229] | 8.89 | 8.96
Cc1c(-c2[nH]c3cc(-c4cn(C5CCNCC5)nn4)sc3c2C(C)C)cn2ncnc2c1C [Example 230] | 8.72 | 8.80
Cc1c(-c2[nH]c3cc(-c4ccc(N5CCNCC5)cc4)sc3c2C(C)C)cn2ncnc2c1C [Example 231] | 8.51 | 8.77
COc1cc(-c2[nH]c3cc(-c4cn(C5CCNCC5)nn4)sc3c2C(C)C)cn2ncnc12 [Example 232] | 8.89 | 9.15
COc1cc(-c2[nH]c3cc(-c4cnn(C5CCNCC5)c4)sc3c2C(C)C)cn2ncnc12 [Example 233] | 8.85 | 9.40
Cc1cc(-c2[nH]c3cc(-c4cccc(N5CCNCC5)c4)sc3c2C(C)C)cn2ncnc12 [Example 234] | 8.08 | 8.09
Cc1cc(-c2[nH]c3cc(-c4nc5ccccc5[nH]4)sc3c2C(C)C)cn2ncnc12 [Example 235, 2-(1H-benzo[d]imidazol-2-yl)-6-isopropyl-5-(8-methyl-[1,2,4]triazolo[1,5-a]pyridin-6-yl)-4H-thieno[3,2-b]pyrrole] | 6.94 | 6.96
Cc1cc(-c2[nH]c3cc(-c4nc5ccncc5[nH]4)sc3c2C(C)C)cn2ncnc12 [Example 236] | 7.85 | 7.73
Cc1cc(-c2[nH]c3cc(-c4nc5ccc(N6CCNCC6)cc5[nH]4)sc3c2C(C)C)cn2ncnc12 [Example 237] | 7.31 | 8.17
Cc1cc(-c2[nH]c3cc(-c4nc5ccc(N6CCNCC6)cc5n4C)sc3c2C(C)C)cn2ncnc12 [Example 238] | 7.85 | 8.55
Cc1c(-c2[nH]c3cc(-c4nc5ccc(N6CCNCC6)cc5[nH]4)sc3c2C(C)C)cn2ncnc2c1C [Example 239] | 7.60 | 8.18
Cc1c(C(=O)N2CCNCC2)sc2c(C(C)C)c(-c3cc(C)c4ncnn4c3)[nH]c12 [Example 240, (6-isopropyl-3-methyl-5-(8-methyl-[1,2,4]triazolo[1,5-a]pyridin-6-yl)-4H-thieno[3,2-b]pyrrol-2-yl)(piperazin-1-yl)methanone] | 6.52 | 7.68
Cc1c(C(=O)N(C)C2CCNCC2)sc2c(C(C)C)c(-c3cc(C)c4ncnn4c3)[nH]c12 [Example 241] | 6.50 | 8.85
Cc1c(C(=O)N2CCC[C@H](N)[C@@H]2C)sc2c(C(C)C)c(-c3cc(C)c4ncnn4c3)[nH]c12 [Example 242] | 6.66 | 7.81
Cc1c(C(=O)N2CCC[C@@H]3NCC[C@@H]32)sc2c(C(C)C)c(-c3cc(C)c4ncnn4c3)[nH]c12 [Example 243] | 7.08 | 7.28
